Patent US20160220569A1, “CDK4/6 Inhibitor Dosage Formulations For The Protection Of Hematopoietic Stem And Progenitor Cells During Chemotherapy” (G1 Therapeutics, Inc., priority 2015, published 2016)
Like-named read-outs stand apart in the source and are kept apart here.

Test: 14-day oral gavage toxicokinetic study in rats
Format: in vivo
Details: both sexes, rat, plasma, po; for concentration at 0.5 h / concentration at 1 h / concentration at 2 h / concentration at 4 h / concentration at 8 h / concentration at 12 h / concentration at 24 h: Mean Compound 1 Plasma Concentration, rats, Overall; for half-life: read-out: t½ (converted)
Experimental: Plasma was obtained from blood samples collected from rats in a composite sampling scheme, with 3 samples collected per sex, per dose, at each target collection time, as illustrated in Table 21 to Table 25. Samples were collected from the vehicle control group on Day 1 and Day 14 at 3 hour after administration. […] Blood samples were collected in tubes containing K3EDTA as an anticoagulant and placed on ice until processed to plasma via centrifugation. Samples were stored frozen at −80° C. until shipment to the bioanalytical laboratory for analysis.
The following parameters were determined:
Cmax: Maximum observed plasma concentration (ng/mL).
A value of 0 ng/mL was assigned to all values below the lower limit of quantitation (BLQ, <10.0 ng/mL).
AUC(0-inf): Area under the plasma concentration vs. time curve extrapolated from 0 to infinity (ng*h/mL), calculated as AUC(0-t)+AUC(t-inf) where AUC(t-inf) is calculated as last measurable concentration (CLast) divided by ke, where ke is the elimination rate constant determined by linear regression of the last three analytically measured points on the log plasma concentration vs. time curve. The selection criteria of the data points for inclusion in the calculation of ke required that at least three data points representing the terminal phase (after Tmax) were regressed and that R2≧0.850 when rounded.
CL: Clearance (L/h/kg), calculated as the dose divided by AUC(0-t).
Vd: Volume of distribution (L/kg), calculated as dose divided by the product of ke and AUC(0-inf).
Vdss: Steady state volume of distribution (L/kg), calculated as clearance […] mean residence time, where mean residence time is calculated as the area under the first moment curve divided by AUC(0-t).
t½: Elimination half-life (h), calculated as ln(2)/ke, where ke is the elimination rate constant determined by linear regression. Half-life was defined as not determined if regression criteria (specified in AUC(0-inf) above) were not met.
Cmax/Dose: Normalized Cmax, calculated as Cmax divided by total dose.
AUC/Dose: Normalized AUC, calculated as AUC(0-t) divided by total dose.
ii. Statistical Analysis Mean and standard deviation (SD) were calculated in Watson. Values of BLQ were assigned a value of 0 ng/mL for mean calculations. Concentration values and derived TK parameters were reported to three significant figures.

[1] = 2 mg/kg, oral 2 mg/kg, Study Day 1, Overall
[2] = 2 mg/kg, oral 2 mg/kg, Study Day 14, Overall
[3] = 5 mg/kg, oral 5 mg/kg, Study Day 1, Overall
[4] = 5 mg/kg, oral 5 mg/kg, Study Day 14, Overall

Structure (SMILES): CN1CCN(c2ccc(Nc3ncc4cc5n(c4n3)C3(CCCCC3)CNC5=O)nc2)CC1 [Compound 1, 2′-((5-(4-methylpiperazin-1-yl)pyridin-2-yl)amino)-7′,8′-dihydro-6′H-spiro[cyclohexane-1,9′-pyrazino[1′,2′:1,5]pyrrolo[2,3-d]pyrimidin]-6′-one]
- concentration at 0.5 h (2 mg/kg, oral 2 mg/kg, Day 1, 0.5 h): 83.7 ng/mL
- concentration at 1 h (2 mg/kg, oral 2 mg/kg, Day 1, 1 h): 74.3 ng/mL
- concentration at 2 h (2 mg/kg, oral 2 mg/kg, Day 1, 2 h): 149 ng/mL
- concentration at 4 h (2 mg/kg, oral 2 mg/kg, Day 1, 4 h): 150 ng/mL
- concentration at 8 h (2 mg/kg, oral 2 mg/kg, Day 1, 8 h): 93.6 ng/mL
- concentration at 12 h (2 mg/kg, oral 2 mg/kg, Day 1, 12 h): 67.9 ng/mL
- concentration at 24 h (2 mg/kg, oral 2 mg/kg, Day 1, 24 h): 6.5 ng/mL
- concentration at 0.5 h (2 mg/kg, oral 2 mg/kg, Day 14, 0.5 h): 88.2 ng/mL
- concentration at 1 h (2 mg/kg, oral 2 mg/kg, Day 14, 1 h): 78.5 ng/mL
- concentration at 2 h (2 mg/kg, oral 2 mg/kg, Day 14, 2 h): 142 ng/mL
- concentration at 4 h (2 mg/kg, oral 2 mg/kg, Day 14, 4 h): 119 ng/mL
- concentration at 8 h (2 mg/kg, oral 2 mg/kg, Day 14, 8 h): 103 ng/mL
- concentration at 12 h (2 mg/kg, oral 2 mg/kg, Day 14, 12 h): 51.9 ng/mL
- concentration at 24 h (2 mg/kg, oral 2 mg/kg, Day 14, 24 h): 4.32 ng/mL
- AUC(0-inf) [1]: 1770 ng·h/mL
- AUC(0-t) [1]: 1730 ng·h/mL
- Cmax [1]: 150 ng/mL
- Tmax [1]: 4 h
- half-life [1]: 4 h
- AUC(0-inf) [2]: 1550 ng·h/mL
- AUC(0-t) [2]: 1530 ng·h/mL
- Cmax [2]: 142 ng/mL
- Tmax [2]: 2 h
- half-life [2]: 3.46 h
- concentration at 0.5 h (5 mg/kg, oral 5 mg/kg, Day 1, 0.5 h): 252 ng/mL
- concentration at 1 h (5 mg/kg, oral 5 mg/kg, Day 1, 1 h): 300 ng/mL
- concentration at 2 h (5 mg/kg, oral 5 mg/kg, Day 1, 2 h): 391 ng/mL
- concentration at 4 h (5 mg/kg, oral 5 mg/kg, Day 1, 4 h): 445 ng/mL
- concentration at 8 h (5 mg/kg, oral 5 mg/kg, Day 1, 8 h): 318 ng/mL
- concentration at 12 h (5 mg/kg, oral 5 mg/kg, Day 1, 12 h): 168 ng/mL
- concentration at 24 h (5 mg/kg, oral 5 mg/kg, Day 1, 24 h): 22.1 ng/mL
- concentration at 0.5 h (5 mg/kg, oral 5 mg/kg, Day 14, 0.5 h): 348 ng/mL
- concentration at 1 h (5 mg/kg, oral 5 mg/kg, Day 14, 1 h): 389 ng/mL
- concentration at 2 h (5 mg/kg, oral 5 mg/kg, Day 14, 2 h): 470 ng/mL
- concentration at 4 h (5 mg/kg, oral 5 mg/kg, Day 14, 4 h): 430 ng/mL
- concentration at 8 h (5 mg/kg, oral 5 mg/kg, Day 14, 8 h): 262 ng/mL
- concentration at 12 h (5 mg/kg, oral 5 mg/kg, Day 14, 12 h): 151 ng/mL
- concentration at 24 h (5 mg/kg, oral 5 mg/kg, Day 14, 24 h): 18 ng/mL
- AUC(0-inf) [3]: 5150 ng·h/mL
- AUC(0-t) [3]: 5020 ng·h/mL
- Cmax [3]: 445 ng/mL
- Tmax [3]: 4 h
- half-life [3]: 4.14 h
- AUC(0-inf) [4]: 4930 ng·h/mL
- AUC(0-t) [4]: 4820 ng·h/mL
- Cmax [4]: 470 ng/mL
- Tmax [4]: 2 h
- half-life [4]: 4.08 h
- concentration at 0.5 h (15 mg/kg, oral 15 mg/kg, Day 1, 0.5 h): 899 ng/mL
- concentration at 1 h (15 mg/kg, oral 15 mg/kg, Day 1, 1 h): 1170 ng/mL
- concentration at 2 h (15 mg/kg, oral 15 mg/kg, Day 1, 2 h): 1490 ng/mL
- concentration at 4 h (15 mg/kg, oral 15 mg/kg, Day 1, 4 h): 1430 ng/mL
- concentration at 8 h (15 mg/kg, oral 15 mg/kg, Day 1, 8 h): 1230 ng/mL
- concentration at 12 h (15 mg/kg, oral 15 mg/kg, Day 1, 12 h): 767 ng/mL
- concentration at 24 h (15 mg/kg, oral 15 mg/kg, Day 1, 24 h): 84.5 ng/mL
